Source: the NIST ThermoML archive (doi:10.1021/je200673a)
Numbers after ± are expanded uncertainties.

Assay: molar heat capacity at constant pressure
Details: 101.33 kPa, Crystal, Vacuum adiabatic calorimetry

C(#Cc1ccccc1)c1ccccc1 [1,2-diphenylethyne]
Details | molar heat capacity at constant pressure [J/K/mol]
5 K | 0.4461 ± 0.018
7.76 K | 1.66 ± 0.04
8.24 K | 1.997 ± 0.046
8.4 K | 2.155 ± 0.049
8.56 K | 2.246 ± 0.051
8.71 K | 2.325 ± 0.053
8.87 K | 2.454 ± 0.056
9.02 K | 2.473 ± 0.056
9.17 K | 2.661 ± 0.06
9.32 K | 2.644 ± 0.059
9.46 K | 2.813 ± 0.063
9.61 K | 3.003 ± 0.067
9.75 K | 3.203 ± 0.071
9.9 K | 3.352 ± 0.074
10 K | 3.39 ± 0.076
10.04 K | 3.408 ± 0.076
10.23 K | 3.58 ± 0.079
10.46 K | 3.861 ± 0.085
10.7 K | 4.163 ± 0.091
10.94 K | 4.495 ± 0.098
11.19 K | 4.753 ± 0.1
11.43 K | 4.952 ± 0.11
11.67 K | 5.282 ± 0.11
11.92 K | 5.556 ± 0.12
12.16 K | 5.878 ± 0.13
12.4 K | 6.207 ± 0.13
12.65 K | 6.564 ± 0.14
12.9 K | 6.777 ± 0.14
13.14 K | 7.156 ± 0.15
13.39 K | 7.478 ± 0.16
13.65 K | 7.835 ± 0.17
13.9 K | 8.246 ± 0.17
14.15 K | 8.579 ± 0.18
14.4 K | 8.944 ± 0.19
14.66 K | 9.243 ± 0.19
14.91 K | 9.637 ± 0.2
15.16 K | 9.985 ± 0.21
15.42 K | 10.37 ± 0.22
15.67 K | 10.79 ± 0.23
15.93 K | 11.12 ± 0.23
16.19 K | 11.5 ± 0.24
16.44 K | 11.93 ± 0.25
16.7 K | 12.28 ± 0.26
16.96 K | 12.67 ± 0.26
17.22 K | 13.04 ± 0.27
17.48 K | 13.53 ± 0.28
17.74 K | 13.89 ± 0.29
18 K | 14.4 ± 0.3
18.26 K | 14.75 ± 0.3
18.52 K | 15.13 ± 0.31
18.78 K | 15.54 ± 0.32
19.05 K | 15.99 ± 0.33
19.31 K | 16.45 ± 0.34
19.57 K | 16.8 ± 0.35
19.83 K | 17.2 ± 0.35
20 K | 17.46 ± 0.36
20.1 K | 17.57 ± 0.36
20.52 K | 18.22 ± 0.17
21.06 K | 19.09 ± 0.17
21.59 K | 19.97 ± 0.18
22.13 K | 20.72 ± 0.19
22.66 K | 21.52 ± 0.19
23.2 K | 22.37 ± 0.2
23.74 K | 23.22 ± 0.21
24.28 K | 24.1 ± 0.21
24.82 K | 25 ± 0.22
25 K | 25.27 ± 0.22
25.36 K | 25.89 ± 0.23
25.9 K | 26.74 ± 0.23
26.44 K | 27.46 ± 0.24
26.99 K | 28.2 ± 0.24
27.53 K | 29.01 ± 0.25
28.08 K | 29.84 ± 0.26
28.62 K | 30.62 ± 0.26
29.17 K | 31.47 ± 0.27
29.72 K | 32.26 ± 0.27
30 K | 32.68 ± 0.27
30.27 K | 33.13 ± 0.28
30.82 K | 33.87 ± 0.28
31.36 K | 34.72 ± 0.29
31.91 K | 35.51 ± 0.3
32.46 K | 36.31 ± 0.3
33.02 K | 37.01 ± 0.31
33.57 K | 37.75 ± 0.31
34.12 K | 38.45 ± 0.32
34.67 K | 39.14 ± 0.33
35 K | 39.59 ± 0.33
35.23 K | 39.87 ± 0.33
35.78 K | 40.61 ± 0.34
36.33 K | 41.23 ± 0.34
36.89 K | 41.86 ± 0.35
37.44 K | 42.57 ± 0.35
38 K | 43.15 ± 0.36
38.56 K | 43.79 ± 0.36
39.11 K | 44.41 ± 0.37
39.67 K | 45.07 ± 0.37
40 K | 45.41 ± 0.38
40.22 K | 45.63 ± 0.38
40.78 K | 46.31 ± 0.38
41.33 K | 46.9 ± 0.39
41.89 K | 47.45 ± 0.39
42.45 K | 48.18 ± 0.4
43 K | 48.73 ± 0.4
43.56 K | 49.34 ± 0.41
44.12 K | 49.91 ± 0.41
44.67 K | 50.46 ± 0.42
45 K | 50.83 ± 0.42
45.23 K | 51.09 ± 0.42
45.79 K | 51.68 ± 0.43
46.35 K | 52.17 ± 0.43
46.91 K | 52.71 ± 0.43
47.47 K | 53.2 ± 0.44
48.03 K | 53.68 ± 0.44
48.59 K | 54.18 ± 0.45
49.15 K | 54.59 ± 0.45
49.71 K | 55.12 ± 0.45
